Common to all, as to assay type: cell-based
The subject of assay [1] is normal cells and abnormal cells. Kind of assay: Inverted slide-based nuclease digestion test with thiol reagent. The following applies: thiol reagent added to the treatment solution. As to the method: Certain embodiments of the invention include a slide-based test. One example of a slide based test includes obtaining a test sample, (e.g., scraping cells off of their culture plates); suspending the sample in phosphate buffered saline (PBS); administering a drop of the cell suspension on a laminin coated slide. The sample administered to the coated slide is allowed to air dry (about 15 minutes). The dried slide is subjected to digestion with ALU (about 15 minutes). After digestion the slide is stained with ethidium bromide (1 minute) and imaged under fluorescence. Aside from being fast, this method is an improvement on standard “smear” methods (like Pap tests) in that it is insensitive to the air-drying artifacts that cause major problems with the standard methods and necessitate using preservatives and fixatives. An alternative sampling technique includes depositing cells by contacting the slide with a tissue block.
Thus, the result of the method is inverted. Inversion of the test can be produced by adding a thiol reagent such as DTT to the treatment solution.

Assay [2] has as its system normal vasculogenic endothelial cells. Kind of assay: Formation of vasculogenic cords by normal endothelial cells on matrix. The following applies: normal endothelial cells on thin and thick matrix; agent added to the culture medium. The source says: With the specific exception of normal vasculogenic endothelial cells, normal cells and cancer cells of low invasive potential form clusters containing small numbers of cells when grown to less than confluent density on serum proteins absorbed to a solid support or on layers of extracellular matrix ranging from less than 50 microns to over 1000 microns in thickness. […] Normal vasculogenic […] cells grown to confluent density on absorbed serum proteins form characteristic “cobblestone” monolayers. These normal endothelial cells form distinctive cord-like structures when grown on thin matrix and networks of these cords when grown on thick matrix. The formation of these vasculogenic cords, which are known to be precursors to the formation of blood vessels, is prevented by the addition of anti-angiogenic agents such as the drug TNP-470 (a derivative of flimagillin) to the culture medium.

Assay [3] concerns invasive tumor cells forming tumor nests. Kind of assay: Labeling of nuclei of invasive tumor cells in tumor nests on thick matrix by DNA-binding agents. The following applies: even after prolonged exposure. The source says:
Rather, they form clusters or sheets of cells with no evidence of the formation of perfusion channels. […] Invasive tumor cells grown in vitro on thick matrix and stained by the addition of bisbenzimide to the culture medium show staining restricted to the nuclei of the cells on the peripheries of the individual cell clusters forming the tumor nest. These and other similar experiments reveal that polar agents such as bisbenzimide and doxorubicin are systematically excluded from the cells comprising tumor nests while these cells are accessible to neutral molecules of similar molecular weights.

Assay [4] concerns tumor cells grown on thin matrix. Kind of assay: Labeling of nuclei of tumor cells grown on thin matrix by DNA-binding agents. The source says: Rather, they form clusters or sheets of cells with no evidence of the formation of perfusion channels. […] […] These and other similar experiments reveal that polar agents such as bisbenzimide and doxorubicin are systematically excluded from the cells comprising tumor nests while these cells are accessible to neutral molecules of similar molecular weights.

Another assay deals with tumor nest. Kind of assay: Perfusion of tumor nests by neutral fluorescent dyes and dextran conjugates. The settings on record: microinjected into a sinusoid of a tumor nest; fluorescence microscopy. The source says: Invasive tumor cells grown on thick layers of extracellular matrix protein form tumor nests in vitro and can be used as model systems for the evaluation of the efficacy of anti-cancer drugs against similar structures in vivo. Fluorescence microscopy images of a fluorescent dye Texas Red microinjected into a sinusoid of a tumor nest will typically show the movement of the dye into the perfusion channels between clumps of tumor cells in the tumor nest. […] This same pattern of perfusion is evident when neutral fluorescent dyes are applied to tissues or layers of matrix proteins containing tumor nests rather than being injected into the nests.

`O[C@@H](CS)[C@@H](O)CS` [DTT]: the “effect on result of nuclease digestion test” value in assay [1] is “normal cells remain intact and the abnormal cells are degraded”. In the case of `CO[C@@H]1[C@H](OC(=O)NC(=O)CCl)CC[C@]2(CO2)[C@H]1[C@@]1(C)O[C@@H]1CC=C(C)C` [TNP-470], the “formation of vasculogenic cords” value in assay [2] is on record as “prevented”. Regarding `CN1CCN(c2ccc3[nH]c(-c4ccc5[nH]c(-c6ccc(O)cc6)nc5c4)nc3c2)CC1` [bisbenzimide], the labeling of nuclei result in assay [3] is “only the nuclei of cells on the peripheries of the tumor cell clusters forming the nests are labeled”; in assay [4], “rapidly and efficiently labeled”. Regarding `COc1cccc2c1C(=O)c1c(O)c3c(c(O)c1C2=O)C[C@@](O)(C(=O)CO)C[C@@H]3O[C@H]1C[C@H](N)[C@H](O)[C@H](C)O1` [doxorubicin], the labeling of nuclei result in assay [3] is “only the nuclei of cells on the peripheries of the tumor cell clusters forming the nests are labeled”; in assay [4] it was “rapidly and efficiently labeled”.

As for Texas Red, the “movement of dye into perfusion channels of tumor nest” value in the assay on tumor nest is “the tumor nest is permeated by the dye”.

The values above are taken from patent US20050142534A1, “Methods and compositions related to a matrix chip” (priority 2003, published 2005).
